Measurements as given in patent US20250346593A1, “IMIDAZO(1,2-1)PYRIDINE DERIVATIVES AS RIPK2 INHIBITORS” (Interline Therapeutics, Inc., priority 2022, published 2025).
pIC50: −log10 of the molar value. Like-named read-outs stand apart in the source and are kept apart here.

How the values were obtained:
[1] = test system: NF-κB pathway (SEAP) in THP1-Dual cells; assay: THP-1 Dual cell SEAP assay (L18-MDP stimulated); type: cell-based; conditions: Homo sapiens, THP1-Dual, read-out: NFkB THP1 IC50
[2] = target: GST-RIPK2 fusion protein (human RIPK2 amino acids 1-310) (Homo sapiens (Human), UniProt O43353); assay: RIPK2 binding competition assay (TR-FRET, Tracer 199)
[3] = read-out: RIPK2 IC50, RIPK2 binding competition assay

GST-RIPK2 fusion protein (human RIPK2 amino acids 1-310), sequence (O43353 1-310): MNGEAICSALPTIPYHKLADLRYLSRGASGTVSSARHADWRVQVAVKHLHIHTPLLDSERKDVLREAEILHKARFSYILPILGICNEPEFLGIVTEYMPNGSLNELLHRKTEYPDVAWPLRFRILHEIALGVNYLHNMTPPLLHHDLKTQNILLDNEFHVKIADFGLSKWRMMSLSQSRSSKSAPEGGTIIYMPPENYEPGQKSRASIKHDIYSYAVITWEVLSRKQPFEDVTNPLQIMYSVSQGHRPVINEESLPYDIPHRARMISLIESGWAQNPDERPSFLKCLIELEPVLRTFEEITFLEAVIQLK

COc1cc2ncc(-c3cc(F)nc(NC[C@H]4CCNC(=O)C4)c3)n2cc1S(=O)(=O)C(C)(C)C (single isomer, unassigned) [Example 239, (4R or S)-4-[({6-fluoro-4-[7-methoxy-6-(2-methylpropane-2-sulfonyl)imidazo[1,2-a]pyridin-3-yl]pyridin-2-yl}amino)methyl]pi peridin-2-one]
pIC50 [1]: > 7.30 | pIC50 [2]: > 9.00

COc1cc2ncc(-c3cc(F)nc(NCC[C@H]4CNC(=O)C4)c3)n2cc1S(=O)(=O)C(C)(C)C (single isomer, unassigned) [Example 240, (4R or S)-4-[2-({6-fluoro-4-[7-methoxy-6-(2-methylpropane-2-sulfonyl)imidazo[1,2-a]pyridin-3-yl]pyridin-2-yl}amino)ethyl] pyrrolidin-2-one]
pIC50 [1]: > 7.30 | pIC50 [2]: > 9.00

COc1cc2ncc(-c3cc(F)nc(NCC[C@@H]4CNC(=O)C4)c3)n2cc1S(=O)(=O)C(C)(C)C (single isomer, unassigned) [Example 241, (4R or S)-4-[2-({6-fluoro-4-[7-methoxy-6-(2-methylpropane-2-sulfonyl)imidazo[1,2-a]pyridin-3-yl]pyridin-2-yl}amino)ethyl] pyrrolidin-2-one]
pIC50 [1]: > 7.30 | pIC50 [2]: > 9.00

COc1cc2ncc(-c3cc(F)nc(N[C@@H]4CCCC[C@H]4O)c3)n2cc1S(=O)(=O)C(C)(C)C (single isomer, unassigned) [Example 244, trans-(15,2S or 1R,2R)-2-({6-fluoro-4-[7-methoxy-6-(2-methylpropane-2-sulfonyl)imidazo[1,2-a]pyridin-3-yl]pyridin-2-yl}amino)cyclohexan-1-ol]
pIC50 [1]: 6.00 to 6.60 | pIC50 [2]: 7.70 to 8.60

COc1cc2ncc(-c3cc(F)nc(N[C@H]4CCCC[C@@H]4O)c3)n2cc1S(=O)(=O)C(C)(C)C (single isomer, unassigned) [Example 245, trans-(15,2S or 1R,2R)-2-({6-fluoro-4-[7-methoxy-6-(2-methylpropane-2-sulfonyl)imidazo[1,2-a]pyridin-3-yl]pyridin-2-yl}amino)cyclohexan-1-ol]
pIC50 [1]: 6.00 to 6.60 | pIC50 [2]: 7.70 to 8.60

CC(C)(C)S(=O)(=O)c1ccc2ncc(-c3cc(F)nc(F)c3)n2c1 [Example 1, 6-(tert-butylsulfonyl)-3-(2,6-difluoropyridin-4-yl)imidazo[1,2-a]pyridine]
pIC50 [1]: < 6.00 | pIC50 [2, 3]: < 7.70

COc1cc2ncc(-c3cc(N)c(OC)c(F)c3)n2cc1S(=O)(=O)C(C)(C)C [Example 2, 5-(6-(tert-butylsulfonyl)-7-methoxyimidazo[1,2-a]pyridin-3-yl)-3-fluoro-2-methoxyaniline]
pIC50 [1]: < 6.00 | pIC50 [2]: 7.70 to 8.60

COc1cc2ncc(-c3cc(F)c(C#N)c(F)c3)n2cc1S(=O)(=O)C(C)(C)C [Example 3, 4-(6-(tert-butylsulfonyl)-7-methoxyimidazo[1,2-a]pyridin-3-yl)-2,6-difluorobenzonitrile]
pIC50 [1]: < 6.00 | pIC50 [2, 3]: < 7.70

COc1cc2ncc(-c3cn[nH]c3)n2cc1S(=O)(=O)C(C)(C)C [Example 4, 6-(tert-butylsulfonyl)-7-methoxy-3-(1H-pyrazol-4-yl)imidazo[1,2-a]pyridine]
pIC50 [1]: 6.00 to 6.60 | pIC50 [2]: 7.70 to 8.60

COc1cc2ncc(-c3cc(N)nc(C(F)(F)F)c3)n2cc1S(=O)(=O)C(C)(C)C [Example 6, 4-(6-(tert-butylsulfonyl)-7-methoxyimidazo[1,2-a]pyridin-3-yl)-6-(trifluoromethyl) pyridin-2-amine]
pIC50 [1]: < 6.00 | pIC50 [2]: 7.70 to 8.60

COc1cc2ncc(-c3cc(N)c(=O)n(C)c3)n2cc1S(=O)(=O)C(C)(C)C [Example 7, 3-amino-5-(6-(tert-butylsulfonyl)-7-methoxyimidazo[1,2-a]pyridin-3-yl)-1-methylpyridin-2(1H)-one]
pIC50 [1]: 6.00 to 6.60 | pIC50 [2]: 7.70 to 8.60

COc1cc2ncc(-c3cc(Cl)nc(Cl)c3)n2cc1S(=O)(=O)C(C)(C)C [Example 8, 6-(tert-butylsulfonyl)-3-(2,6-dichloropyridin-4-yl)-7-methoxyimidazo[1,2-a]pyridine]
pIC50 [1]: < 6.00 | pIC50 [2, 3]: < 7.70

COc1cc2ncc(-c3ccc(F)nc3F)n2cc1S(=O)(=O)C(C)(C)C [Example 9, 6-(tert-butylsulfonyl)-3-(2,6-difluoropyridin-3-yl)-7-methoxyimidazo[1,2-a]pyridine]
pIC50 [1]: < 6.00 | pIC50 [2, 3]: < 7.70

CCCS(=O)(=O)Nc1cc(-c2cnc3cc(OC)c(S(=O)(=O)C(C)(C)C)cn23)cc(OC)c1OC [Example 10, N-(5-(6-(tert-butylsulfonyl)-7-methoxyimidazo[1,2-a]pyridin-3-yl)-2,3-dimethoxyphenyl) propane-1-sulfonamide]
pIC50 [1]: > 7.30 | pIC50 [2, 3]: > 9.00

COc1cc2ncc(-c3cc(F)cc([N+](=O)[O-])c3)n2cc1S(=O)(=O)C(C)(C)C [Example 13, 3-(3-fluoro-5-nitrophenyl)-7-methoxy-6-(2-methylpropane-2-sulfonyl)imidazo[1,2-a]pyridine]
pIC50 [1]: < 6.00 | pIC50 [2]: < 7.70

COc1cc2ncc(-c3ccc(N)nc3F)n2cc1S(=O)(=O)C(C)(C)C [Example 14, 5-(6-(tert-butylsulfonyl)-7-methoxyimidazo[1,2-a]pyridin-3-yl)-6-fluoropyridin-2-amine]
pIC50 [1]: < 6.00 | pIC50 [2, 3]: < 7.70

COc1cc2ncc(-c3ccc(N)nc3)n2cc1S(=O)(=O)C(C)(C)C [Example 15, 5-(6-(tert-butylsulfonyl)-7-methoxyimidazo[1,2-a]pyridin-3-yl)pyridin-2-amine]
pIC50 [1]: < 6.00 | pIC50 [2, 3]: < 7.70

COc1cc2ncc(-c3ccc(N(C)C)nc3)n2cc1S(=O)(=O)C(C)(C)C [Example 16, 5-(6-(tert-butylsulfonyl)-7-methoxyimidazo[1,2-a]pyridin-3-yl)-N,N-dimethylpyridin-2-amine]
pIC50 [1]: < 6.00 | pIC50 [2, 3]: < 7.70

COc1cc2ncc(-c3cnc(N)c(OC)c3)n2cc1S(=O)(=O)C(C)(C)C [Example 17, 5-(6-(tert-butylsulfonyl)-7-methoxyimidazo[1,2-a]pyridin-3-yl)-3-methoxypyridin-2-amine]
pIC50 [1]: < 6.00 | pIC50 [2, 3]: < 7.70

COc1cc2ncc(-c3ccc(N)cc3)n2cc1S(=O)(=O)C(C)(C)C [Example 18, 4-(6-(tert-butylsulfonyl)-7-methoxyimidazo[1,2-a]pyridin-3-yl)aniline]
pIC50 [1]: < 6.00 | pIC50 [2, 3]: < 7.70

COc1cc2ncc(-c3cnc(N)c(C(F)(F)F)c3)n2cc1S(=O)(=O)C(C)(C)C [Example 19, 5-(6-(tert-butylsulfonyl)-7-methoxyimidazo[1,2-a]pyridin-3-yl)-3-(trifluoromethyl)pyridin-2-amine]
pIC50 [1]: < 6.00 | pIC50 [2, 3]: < 7.70

COc1cc2ncc(-c3ccc(N)c(F)c3)n2cc1S(=O)(=O)C(C)(C)C [Example 20, 4-(6-(tert-butylsulfonyl)-7-methoxyimidazo[1,2-a]pyridin-3-yl)-2-fluoroaniline]
pIC50 [1]: 6.00 to 6.60 | pIC50 [2]: 7.70 to 8.60

COc1cc2ncc(-c3cnc(N)cc3F)n2cc1S(=O)(=O)C(C)(C)C [Example 21, 5-(6-(tert-butylsulfonyl)-7-methoxyimidazo[1,2-a]pyridin-3-yl)-4-fluoropyridin-2-amine]
pIC50 [1]: < 6.00 | pIC50 [2, 3]: < 7.70

COc1cc2ncc(-c3cnc(N)c(Cl)c3)n2cc1S(=O)(=O)C(C)(C)C [Example 22, 5-(6-(tert-butylsulfonyl)-7-methoxyimidazo[1,2-a]pyridin-3-yl)-3-chloropyridin-2-amine]
pIC50 [1]: < 6.00 | pIC50 [2]: 7.70 to 8.60
